Data as given in patent publication US20050032766A1, “Use of estrogenic compounds as anti-fungal agents” (priority 2003, published 2005).

Experiments:
Type in all cases: cell-based
C. albicans [1] = assay: C. albicans colony counts with 17β-estradiol in presence and absence of 2ME2 (Example 3); details: 5 hours; for Number of Colonies treated with estradiol: 1 nM 17β-estradiol alone; for Number of Colonies treated with estradiol and 2ME2: 1 μM 2ME2 with 1 nM 17β-estradiol; for Percentage of Inhibition: 1 μM 2ME2 with 1 nM 17β-estradiol vs estradiol alone
Protocol: (§1) The ability of 3 μM 2ME2 to inhibit the growth of ten different strains of C. albicans was investigated. Nine of these strains were clinically isolated and maintained by interval of subculture with Sabouraouds dextrose agar and storage at 4° C.; the other strain was purchased from ATCC. Yeast cells were cultured with nitrogen broth devoid of mammalian steroid hormones in the presence and absence of 2ME2. At 5 and 12 hours after the addition of 2ME2, a small volume of control and treated cultures was drawn and plated on Sabouraouds dextrose agar plates. The plates were placed at 37° C. and the colonies counted 24 hours later. Table I illustrates that micromolar concentrations 2ME2 are able to suppress the growth of 9/10 strains of C. albicans tested here.
In a separate experiment, 1 nM 17β-estradiol was added to the cultures of C. albicans cells in the presence and absence of 1 μM 2ME2 and the number of colonies of yeast cells cultured for 5 hours with the above steroids were counted as previously described.

C. albicans [2] = assay: Repeat of the growth inhibition test, colony counts after 5 hours of culture (Example 2)
Protocol: as §1
The experiment described in Example 1 was repeated with 4 of the above strains and 3 newly isolated C. albicans trains. The following counts were taken from yeast cultures grown for 5 hours in the nitrogen base media in the presence and absence of micromolar concentrations 2ME2.

C. albicans [3] = assay: Growth inhibition of C. albicans strains by 2ME2, colony counts at 5 and 12 hours (Example 1); details: for Number of Treated Colonies at 5 hrs / Number of Treated Colonies at 12 hrs / Percentage of Inhibition at 12 hrs: 3 μM 2ME2
Protocol: as §1

[4] = strain 2, micromolar concentrations 2ME2
[5] = strain 5, micromolar concentrations 2ME2
[6] = strain 8, micromolar concentrations 2ME2
[7] = strain 10, micromolar concentrations 2ME2
[8] = strain 11, micromolar concentrations 2ME2
[9] = strain 12, micromolar concentrations 2ME2
[10] = strain ATCC, micromolar concentrations 2ME2

## C[C@]12CC[C@@H]3c4ccc(O)cc4CC[C@H]3[C@@H]1CC[C@@H]2O [estradiol, 17β-estradiol, reference compound]
C. albicans [1]; strain 2
  Number of Colonies treated with estradiol: 58 ± 5
C. albicans [1]; strain 5
  Number of Colonies treated with estradiol: 69 ± 13
C. albicans [1]; strain 8
  Number of Colonies treated with estradiol: 48 ± 7
C. albicans [1]; strain 10
  Number of Colonies treated with estradiol: 52 ± 2
C. albicans [1]; strain 11
  Number of Colonies treated with estradiol: 80 ± 1
C. albicans [1]; strain 12
  Number of Colonies treated with estradiol: 120
C. albicans [1]; strain ATCC
  Number of Colonies treated with estradiol: 63 ± 8

## COc1cc2c(cc1O)CC[C@@H]1[C@@H]2CC[C@]2(C)[C@@H](O)CC[C@@H]12 [2ME2, 2-Methoxyestradiol]
C. albicans [2]; [4]
  Percentage of Inhibition: 70%
  Treated Colonies: 26 ± 7
C. albicans [2]; [5]
  Percentage of Inhibition: 41%
  Treated Colonies: 58 ± 7
C. albicans [2]; [6]
  Percentage of Inhibition: 50%
  Treated Colonies: 59 ± 7
C. albicans [2]; [7]
  Percentage of Inhibition: 0%
  Treated Colonies: 51 ± 19
C. albicans [2]; [8]
  Percentage of Inhibition: 14%
  Treated Colonies: 74 ± 16
C. albicans [2]; [9]
  Percentage of Inhibition: 50%
  Treated Colonies: 77 ± 12
C. albicans [2]; [10]
  Percentage of Inhibition: 44%
  Treated Colonies: 36 ± 6
C. albicans [1]; strain 2
  Number of Colonies treated with estradiol and 2ME2: 64 ± 2
C. albicans [1]; strain 5
  Percentage of Inhibition: 43%
  Number of Colonies treated with estradiol and 2ME2: 39 ± 4
C. albicans [1]; strain 8
  Percentage of Inhibition: 48%
  Number of Colonies treated with estradiol and 2ME2: 25 ± 3
C. albicans [1]; strain 10
  Percentage of Inhibition: 56%
  Number of Colonies treated with estradiol and 2ME2: 23 ± 5
C. albicans [1]; strain 11
  Percentage of Inhibition: 31%
  Number of Colonies treated with estradiol and 2ME2: 55 ± 6
C. albicans [1]; strain 12
  Percentage of Inhibition: 53%
  Number of Colonies treated with estradiol and 2ME2: 56 ± 1
C. albicans [1]; strain ATCC
  Percentage of Inhibition: 55%
  Number of Colonies treated with estradiol and 2ME2: 28 ± 12
C. albicans [3]; micromolar concentrations 2ME2, ten strains tested
  strains of C. albicans whose growth is suppressed: 9/10
C. albicans [3]; strain 1
  Number of Treated Colonies at 5 hrs: 16
  Number of Treated Colonies at 12 hrs: 50
  Percentage of Inhibition at 12 hrs: 57%
C. albicans [3]; strain 2
  Number of Treated Colonies at 5 hrs: 51
  Number of Treated Colonies at 12 hrs: >400
C. albicans [3]; strain 3
  Number of Treated Colonies at 5 hrs: 14
  Number of Treated Colonies at 12 hrs: 86
  Percentage of Inhibition at 12 hrs: >78%
C. albicans [3]; strain 4
  Number of Treated Colonies at 5 hrs: 17
  Number of Treated Colonies at 12 hrs: 113
  Percentage of Inhibition at 12 hrs: >72%
C. albicans [3]; strain 5
  Number of Treated Colonies at 5 hrs: 14
  Number of Treated Colonies at 12 hrs: 85
  Percentage of Inhibition at 12 hrs: >79%
C. albicans [3]; strain 6
  Number of Treated Colonies at 5 hrs: 32
  Number of Treated Colonies at 12 hrs: 131
  Percentage of Inhibition at 12 hrs: >67%
C. albicans [3]; strain 7
  Number of Treated Colonies at 5 hrs: 13
  Number of Treated Colonies at 12 hrs: 148
  Percentage of Inhibition at 12 hrs: >63%
C. albicans [3]; strain 8
  Number of Treated Colonies at 5 hrs: 14
  Number of Treated Colonies at 12 hrs: 98
  Percentage of Inhibition at 12 hrs: >75%
C. albicans [3]; strain 9
  Number of Treated Colonies at 5 hrs: 15
  Number of Treated Colonies at 12 hrs: 90
  Percentage of Inhibition at 12 hrs: >77%
C. albicans [3]; strain ATCC
  Number of Treated Colonies at 5 hrs: 15
  Number of Treated Colonies at 12 hrs: 67
  Percentage of Inhibition at 12 hrs: 70%
